According to the supplement of paper PMC5908809:

Assays:
[1] = system: normal NK cells expanded with K562-aAPC; experiment: percent inhibition of viability; higher = more inhibition; details: 72 h, IL-2 2.5 ng/mL
Description: (§1)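 Drug sensitivity and resistance testing on K562-aAPC-expanded normal NK cells: 5 concentrations (10-fold steps over a 10,000-fold range), 72 h at 37 °C, viability by CellTiter-Glo normalised to DMSO and benzethonium chloride controls; DSS from the fitted curve.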

DERL-7 (IL-2 2.5 ng/mL) [2] = experiment: as above; details: 72 h
IMC-1 (IL-2 20 ng/mL) [3] = experiment: as above; details: 72 h
KAI3 (IL-2 2.5 ng/mL) [4] = experiment: as above; details: 72 h
KHYG-1 (IL-2 2.5 ng/mL) [5] = experiment: as above; details: 72 h
NK-92 (IL-2 2.5 ng/mL) [6] = experiment: as above; details: 72 h
NK-YS (IL-2 2.5 ng/mL) [7] = experiment: as above; details: 72 h
NKL (IL-2 2.5 ng/mL) [8] = experiment: as above; details: 72 h
SNK-6 (IL-2 2.5 ng/mL) [9] = experiment: as above; details: 72 h
YT (IL-2 2.5 ng/mL) [10] = experiment: as above; details: 72 h
[11] = system: normal primary NK cells, pool 1 (3 donors) (IL-2 2.5 ng/mL); experiment: as above; details: 72 h
[12] = system: normal primary NK cells, pool 1 (3 donors), resting (IL-2 0 ng/mL); experiment: as above; details: 72 h
[13] = system: normal primary NK cells, pool 2 (3 donors) (IL-2 2.5 ng/mL); experiment: as above; details: 72 h
[14] = system: normal primary NK cells, pool 3 (3 donors) (IL-2 2.5 ng/mL); experiment: as above; details: 72 h
[15] = system: normal NK cells expanded with K562-aAPC; experiment: drug sensitivity score (DSS) (DSS units); higher = more sensitive; extreme values may be limits of the assay; details: 72 h; IL-2 2.5 ng/mL
Description: as §1

DERL-7 (IL-2 2.5 ng/mL) [16] = experiment: as above; details: 72 h
IMC-1 (IL-2 20 ng/mL) [17] = experiment: as above; details: 72 h
KAI3 (IL-2 2.5 ng/mL) [18] = experiment: as above; details: 72 h
KHYG-1 (IL-2 2.5 ng/mL) [19] = experiment: as above; details: 72 h
NK-92 (IL-2 2.5 ng/mL) [20] = experiment: as above; details: 72 h
NK-YS (IL-2 2.5 ng/mL) [21] = experiment: as above; details: 72 h
NKL (IL-2 2.5 ng/mL) [22] = experiment: as above; details: 72 h
SNK-6 (IL-2 2.5 ng/mL) [23] = experiment: as above; details: 72 h
YT (IL-2 2.5 ng/mL) [24] = experiment: as above; details: 72 h
[25] = system: normal primary NK cells, pool 1 (3 donors) (IL-2 2.5 ng/mL); experiment: as above; details: 72 h
[26] = system: normal primary NK cells, pool 1 (3 donors), resting (IL-2 0 ng/mL); experiment: as above; details: 72 h
[27] = system: normal primary NK cells, pool 2 (3 donors) (IL-2 2.5 ng/mL); experiment: as above; details: 72 h
[28] = system: normal primary NK cells, pool 3 (3 donors) (IL-2 2.5 ng/mL); experiment: as above; details: 72 h

Cc1ccccc1C(C(=O)NC1CCCCC1)N(C(=O)Cn1ccnc1C)c1cccc(F)c1 (centres undefined) [AGI-5198] (max concentration tested 10000 nM)
percent inhibition of viability [%]
Details	1 nM	10 nM	100 nM	1000 nM	10000 nM
DERL-7 (IL-2 2.5 ng/mL) [2]	-2.01	0.12	2.86	4.19	4.9
IMC-1 (IL-2 20 ng/mL) [3]	-3.01	0.83	3.36	-0.42	6.36
KAI3 (IL-2 2.5 ng/mL) [4]	1.08	-2.21	4.4	-7.93	5.53
KHYG-1 (IL-2 2.5 ng/mL) [5]	2.51	1.12	2.9	0.31	10.8
NK-92 (IL-2 2.5 ng/mL) [6]	-13.7	-5.86	2.38	-10.7	12.8
NK-YS (IL-2 2.5 ng/mL) [7]	1.52	-1.9	7.02	-2.36	15.5
NKL (IL-2 2.5 ng/mL) [8]	-11.8	5.55	4.44	6.62	15.3
SNK-6 (IL-2 2.5 ng/mL) [9]	8.4	14.1	-2.27	3.58	14.7
YT (IL-2 2.5 ng/mL) [10]	0.66	2.4	5.93	3.4	10.8
[1]	-2.75	-1.08	-4.23	1.75	3.84
[11]	-4.32	-10.5	-2.82	-8.59	-1.32
[12]	7.51	-9.12	-0.43	-14.1	-4.43
[13]	-13.6	-0.73	3.47	6.75	9.8
[14]	-10	-4.39	-0.6	2.48	5.96

Details	drug sensitivity score
DERL-7 (IL-2 2.5 ng/mL) [16]	0
IMC-1 (IL-2 20 ng/mL) [17]	0
KAI3 (IL-2 2.5 ng/mL) [18]	0
KHYG-1 (IL-2 2.5 ng/mL) [19]	0
NK-92 (IL-2 2.5 ng/mL) [20]	0.01
NK-YS (IL-2 2.5 ng/mL) [21]	0.18
NKL (IL-2 2.5 ng/mL) [22]	0.33
SNK-6 (IL-2 2.5 ng/mL) [23]	0.54
YT (IL-2 2.5 ng/mL) [24]	0
[15]	0
[25]	0
[26]	0
[27]	0
[28]	0
